Data taken from US9062055B2, “Fused pyrrole derivatives as PI3K inhibitors” (Incyte Corporation, priority 2010, dated 2015).
Where a name gives a salt, the structure may show the parent alone.

Biological target: T1, PI3Kδ (p110δ/p85α) (Homo sapiens, UniProt O00329)
T1 construct: purchased Millipore (Bedford, Mass.)
Assay: PI3Kδ Scintillation Proximity Assay
Assay type: biochemical
Settings: TFA salts of racemates tested; 20 μM PIP2, 20 μM ATP, 4 nM PI3Kδ, 210 min, room temperature
Source text: [γ-^33P]ATP (10 mCi/mL) was purchased from Perkin-Elmer (Waltham, Mass.). Lipid kinase substrate, D-myo-Phosphatidylinositol 4,5-bisphosphate (PtdIns(4,5)P2)D (+)-sn-1,2-di-O-octanoylglyceryl, 3-O-phospho linked (PIP2), CAS 204858-53-7, was purchased from Echelon Biosciences (Salt Lake City, Utah). PI3Kδ (p110δ/p85α) was purchased from Millipore (Bedford, Mass.). ATP, MgCl2, DTT, EDTA, MOPS and CHAPS were purchased from Sigma-Aldrich (St. Louis, Mo.). Wheat Germ Agglutinin (WGA) YSi SPA Scintillation Beads was purchased from GE healthcare life sciences (Piscataway, N.J.). The kinase reaction was conducted in polystyrene 384-well matrix white plate from Thermo Fisher Scientific in a final volume of 25 μL. Inhibitors were first diluted serially in DMSO and added to the plate wells before the addition of other reaction components. The final concentration of DMSO in the assay was 0.5%. The PI3K assays were carried out at room temperature in 20 mM MOPS, pH 6.7, 10 mM MgCl2, 5 mM DTT and CHAPS 0.03%. Reactions were initiated by the addition of ATP, the final reaction mixture consisted of 20 μM PIP2, 20 μM ATP, 0.2 μCi [γ-^33P] ATP, 4 nM PI3Kδ. Reactions were incubated for 210 min and terminated by the addition of 40 μL SPA beads suspended in quench buffer: 150 mM potassium phosphate pH 8.0, 20% glycerol. 25 mM EDTA, 400 μM ATP. The final concentration of SPA beads was 1.0 mg/mL After the plate sealing, plates were shaken overnight at room temperature and centrifuged at 1800 rpm for 10 minutes, the radioactivity of the product was determined by scintillation counting on Topcount (Perkin-Elmer). IC50 determination was performed by fitting the curve of percent control activity versus the log of the inhibitor concentration using the GraphPad Prism 3.0 software. See Table 1 for data related to compounds of the invention (TFA salts of racemates of each of the compounds were tested).

T1 sequence (O00329 whole entry): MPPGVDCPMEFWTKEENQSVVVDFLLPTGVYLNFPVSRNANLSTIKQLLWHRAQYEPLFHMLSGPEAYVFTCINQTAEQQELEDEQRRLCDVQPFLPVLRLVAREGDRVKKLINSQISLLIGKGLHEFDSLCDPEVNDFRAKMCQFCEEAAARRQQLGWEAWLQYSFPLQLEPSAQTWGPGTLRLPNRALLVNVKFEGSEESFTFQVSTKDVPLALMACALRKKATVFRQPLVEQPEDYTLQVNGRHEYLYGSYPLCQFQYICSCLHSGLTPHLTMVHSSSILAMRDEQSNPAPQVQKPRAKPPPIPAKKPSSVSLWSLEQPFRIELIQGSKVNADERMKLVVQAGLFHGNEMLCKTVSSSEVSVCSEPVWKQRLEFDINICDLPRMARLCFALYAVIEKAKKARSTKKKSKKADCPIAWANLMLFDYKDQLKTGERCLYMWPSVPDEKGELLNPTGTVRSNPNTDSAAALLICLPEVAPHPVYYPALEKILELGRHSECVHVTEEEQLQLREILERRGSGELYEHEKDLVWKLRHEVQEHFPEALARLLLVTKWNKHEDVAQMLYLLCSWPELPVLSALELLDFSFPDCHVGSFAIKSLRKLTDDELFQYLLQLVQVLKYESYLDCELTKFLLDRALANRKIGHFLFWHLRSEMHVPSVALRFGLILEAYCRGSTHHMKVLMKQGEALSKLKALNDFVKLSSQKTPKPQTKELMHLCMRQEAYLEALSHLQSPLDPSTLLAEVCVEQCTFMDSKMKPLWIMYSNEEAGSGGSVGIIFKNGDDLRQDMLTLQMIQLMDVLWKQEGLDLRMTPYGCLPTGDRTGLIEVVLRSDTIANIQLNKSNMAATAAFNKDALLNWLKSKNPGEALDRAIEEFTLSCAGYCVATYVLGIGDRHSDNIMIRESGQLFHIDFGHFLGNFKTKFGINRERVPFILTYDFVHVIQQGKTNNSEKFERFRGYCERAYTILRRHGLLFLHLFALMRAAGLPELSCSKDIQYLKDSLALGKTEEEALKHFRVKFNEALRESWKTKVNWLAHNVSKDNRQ
T1 sequence (P27986 whole entry partner): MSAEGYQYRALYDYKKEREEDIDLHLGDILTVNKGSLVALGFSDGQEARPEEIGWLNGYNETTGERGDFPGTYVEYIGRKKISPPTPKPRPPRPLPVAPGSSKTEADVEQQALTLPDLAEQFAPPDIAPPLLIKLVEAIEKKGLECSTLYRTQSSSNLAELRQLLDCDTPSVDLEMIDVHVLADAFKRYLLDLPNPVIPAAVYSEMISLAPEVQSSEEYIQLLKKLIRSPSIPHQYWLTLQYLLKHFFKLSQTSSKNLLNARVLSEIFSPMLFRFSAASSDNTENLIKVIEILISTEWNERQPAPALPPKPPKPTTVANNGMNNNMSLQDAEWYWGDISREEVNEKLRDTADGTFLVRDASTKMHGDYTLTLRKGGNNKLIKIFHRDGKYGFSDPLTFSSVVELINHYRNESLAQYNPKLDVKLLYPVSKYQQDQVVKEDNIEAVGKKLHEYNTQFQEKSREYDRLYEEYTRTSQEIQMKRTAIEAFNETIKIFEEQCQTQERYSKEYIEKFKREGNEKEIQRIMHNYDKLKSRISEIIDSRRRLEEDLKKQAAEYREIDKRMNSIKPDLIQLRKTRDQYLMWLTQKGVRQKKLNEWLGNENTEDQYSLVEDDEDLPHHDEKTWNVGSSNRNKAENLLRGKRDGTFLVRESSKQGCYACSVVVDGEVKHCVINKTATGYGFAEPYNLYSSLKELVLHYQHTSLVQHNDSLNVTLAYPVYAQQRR

Row | IC50 | Structure (SMILES)
1 | 50 to 100 nM | CC(Nc1ncnc2[nH]cnc12)c1c(Cl)c2c(Cl)cccc2n1-c1cccc(F)c1 (racemic) [Example 4, N-{1-[3,4-Dichloro-1-(3-fluorophenyl)-1H-indol-2-yl]ethyl}-9H-purin-6-amine trifluoroacetate]
2 | 50 to 100 nM | CC(Nc1ncnc2[nH]cnc12)c1c(Br)c2ccccc2n1-c1cccc(F)c1 (racemic) [Example 5, N-{1-[3-Bromo-1-(3-fluorophenyl)-1H-indol-2-yl]ethyl}-9H-purin-6-amine trifluoroacetate]
3 | ≤ 50 nM | Cc1c(C(C)Nc2ncnc3[nH]cnc23)n(-c2cccc(F)c2)c2ccccc12 (racemic) [Example 8, N-{1-[1-(3-Fluorophenyl)-3-methyl-1H-indol-2-yl]ethyl}-9H-purin-6-amine trifluoroacetate]
4 | 100 to 250 nM | CC(Nc1ncnc2[nH]cnc12)c1cc2ccc(Cl)cc2n1-c1cccc(F)c1 (racemic) [Example 1, N-{1-[6-Chloro-1-(3-fluorophenyl)-1H-indol-2-yl]ethyl}-9H-purin-6-amine trifluoroacetate]
5 | ≤ 50 nM | CC(Nc1ncnc2[nH]cnc12)c1c(Cl)c2cccnc2n1-c1cccc(F)c1 (racemic) [Example 6, N-{1-[3-Chloro-1-(3-fluorophenyl)-1H-pyrrolo[2,3-b]pyridin-2-yl]ethyl}-9H-purin-6-amine bis(trifluoroacetate)]
6 | 250 to 750 nM | CC(Nc1ncnc2[nH]cnc12)c1cc2cccnc2n1-c1cccc(F)c1 (racemic) [Example 7, N-(1-(1-(3-Fluorophenyl)-1H-pyrrolo[2,3-b]pyridin-2-yl)ethyl)-9H-purin-6-amine bis(2,2,2-trifluoroacetate)]
7 | ≤ 50 nM | CC(Nc1ncnc2[nH]cnc12)c1cc2c(Cl)cccc2n1-c1cccc(F)c1 (racemic) [Example 2, N-{1-[4-Chloro-1-(3-fluorophenyl)-1H-indol-2-yl]ethyl}-9H-purin-6-amine trifluoroacetate]
8 | ≤ 50 nM | CC(Nc1ncnc2[nH]cnc12)c1c(Cl)c2ccccc2n1-c1cccc(F)c1 (racemic) [Example 3, N-{1-[3-Chloro-1-(3-fluorophenyl)-1H-indol-2-yl]ethyl}-9H-purin-6-amine trifluoroacetate]
9 | 100 to 250 nM | CC(Nc1ncnc2[nH]cnc12)c1c(F)c2cccnc2n1-c1cccc(F)c1 (racemic) [Example 10, N-(1-(3-Fluoro-1-(3-fluorophenyl)-1H-pyrrolo[2,3-b]pyridin-2-yl)ethyl)-9H-purin-6-amine bis(2,2,2-trifluoroacetate)]
10 | ≤ 50 nM | CC(Nc1ncnc2[nH]cnc12)c1c(C#N)c2ccccc2n1-c1cccc(F)c1 (racemic) [Example 9, 2-(1-(9H-Purin-6-ylamino)ethyl)-1-(3-fluorophenyl)-1H-indole-3-carbonitrile 2,2,2-trifluoroacetate]
